# Data taken from patent US9464076B2, “Benzothiophene derivative” (Daiichi Sankyo Company, Limited, priority 2013, dated 2016).
# pIC50: −log10 of the molar value. Counter-ions that a name gives are not always drawn.
# System: Male C57BL/6 Cr mice
# Assay: Test on suppression of phencyclidine-induced hyperlocomotion in mice
# Type: in vivo, mouse
# Details: Mus musculus, po, 1 h, locomotor activity, test compound 10 mg/kg oral, phencyclidine 5 mg/kg s.c. approx. 1 hour later, measured for 1 hour
# Protocol: Male C57BL/6 Cr mice (Japan SLC, Inc.) (8 weeks old) were used in the experiment. A test compound was suspended at 1 mg/mL in a 0.5% hydroxypropylcellulose solution to prepare a suspension for administration. The suspension of the test compound or a solvent (0.5% hydroxypropylcellulose solution) was orally administered at a dose of 10 mL/kg to each mouse. After the administration, the mouse was immediately placed in a locomotor activity measurement apparatus (Muromachi Kikai Co., Ltd., locomotor activity measurement system SUPERMEX). Approximately 1 hour later, phencyclidine (5 mg/10 mL/kg) or a solvent (10 mL/kg saline) was subcutaneously administered to the mouse. The locomotor activity was measured from immediately after the subcutaneous administration to 1 hour later.
# Percent inhibition exceeding 100 means that when the activity of the phencyclidine administration control group was defined as 100, the activity of the group given a test compound was lower than that of the solvent administration control group.
row,SMILES,inhibition in vivo at 10 mg/kg [%]
1,"COCc1ccc(C(C)=O)c2sc(C(=O)Nc3ccc4c(CN5CC[C@H](O)C5)cccc4n3)c(C)c12 [Example 63, (S)-7-Acetyl-N-(5-((3-hydroxypyrrolidin-1-yl)methyl)quinolin-2-yl)-4-(methoxymethyl)-3-methylbenzo[b]thiophene-2-carboxamide dihydrochloride]",84
2,"COCc1ccc(C(C)=O)c2sc(C(=O)Nc3ccc4c(C(=O)N5CCN(C)CC5)cccc4n3)c(C)c12 [Example 96, 7-Acetyl-4-(methoxymethyl)-3-methyl-N-(5-((4-methylpiperazin-1-yl)carbonyl)quinolin-2-yl)benzo[b]thiophene-2-carboxamide]",65
3,"[2H]C([2H])([2H])OCc1cccc2nc(NC(=O)c3sc4c(C(C)=O)ccc(COC)c4c3C)ccc12 [Example 117, 7-Acetyl-4-(methoxymethyl)-N-(5-((^2H3)methoxymethyl)quinolin-2-yl)-3-methylbenzo[b]thiophene-2-carboxamide]",57
4,"COCc1ccc(C(C)=O)c2sc(C(=O)Nc3ccc4c(CN5CC[C@@H](F)C5)cccc4n3)c(C)c12 [Example 60, (R)-7-Acetyl-N-(5-((3-fluoropyrrolidin-1-yl)methyl)quinolin-2-yl)-4-(methoxymethyl)-3-methylbenzo[b]thiophene-2-carboxamide hydrochloride]",107
5,"[2H]C([2H])([2H])OCc1ccc(C(C)=O)c2sc(C(=O)Nc3ccc4c(CO)cccc4n3)c(C)c12 [Example 120, 7-Acetyl-N-(5-(hydroxymethyl)quinolin-2-yl)-4-((^2H3)methoxymethyl)-3-methylbenzo[b]thiophene-2-carboxamide]",52
6,"COCc1ccc(C(C)=O)c2sc(C(=O)Nc3ccc4ccccc4n3)c(C)c12 [Example 49, 7-Acetyl-4-(methoxymethyl)-3-methyl-N-(quinolin-2-yl)benzo[b]thiophene-2-carboxamide]",104
7,"COCc1ccc(C(C)=O)c2sc(C(=O)Nc3cc(N(C)C)c4ccccc4n3)c(C)c12 [Example 55, 7-Acetyl-N-(4-(dimethylamino)quinolin-2-yl)-4-(methoxymethyl)-3-methylbenzo[b]thiophene-2-carboxamide]",127

# Same assay, conditions: locomotor activity, test compound 10 mg/kg oral, phencyclidine 5 mg/kg s.c. approx. 1 hour later, measured for 1 hour
row,SMILES,% inhibition [%]
1,"COCc1ccc(C(C)=O)c2sc(C(=O)Nc3ccc4c(CO)cccc4n3)c(C)c12.Cl [Example 77, 7-Acetyl-N-(5-(hydroxymethyl)quinolin-2-yl)-4-(methoxymethyl)-3-methylbenzo[b]thiophene-2-carboxamide hydrochloride]",96

# Target: PDE10A (Homo sapiens (Human), UniProt Q9Y233)
# Sequence (Q9Y233 whole entry): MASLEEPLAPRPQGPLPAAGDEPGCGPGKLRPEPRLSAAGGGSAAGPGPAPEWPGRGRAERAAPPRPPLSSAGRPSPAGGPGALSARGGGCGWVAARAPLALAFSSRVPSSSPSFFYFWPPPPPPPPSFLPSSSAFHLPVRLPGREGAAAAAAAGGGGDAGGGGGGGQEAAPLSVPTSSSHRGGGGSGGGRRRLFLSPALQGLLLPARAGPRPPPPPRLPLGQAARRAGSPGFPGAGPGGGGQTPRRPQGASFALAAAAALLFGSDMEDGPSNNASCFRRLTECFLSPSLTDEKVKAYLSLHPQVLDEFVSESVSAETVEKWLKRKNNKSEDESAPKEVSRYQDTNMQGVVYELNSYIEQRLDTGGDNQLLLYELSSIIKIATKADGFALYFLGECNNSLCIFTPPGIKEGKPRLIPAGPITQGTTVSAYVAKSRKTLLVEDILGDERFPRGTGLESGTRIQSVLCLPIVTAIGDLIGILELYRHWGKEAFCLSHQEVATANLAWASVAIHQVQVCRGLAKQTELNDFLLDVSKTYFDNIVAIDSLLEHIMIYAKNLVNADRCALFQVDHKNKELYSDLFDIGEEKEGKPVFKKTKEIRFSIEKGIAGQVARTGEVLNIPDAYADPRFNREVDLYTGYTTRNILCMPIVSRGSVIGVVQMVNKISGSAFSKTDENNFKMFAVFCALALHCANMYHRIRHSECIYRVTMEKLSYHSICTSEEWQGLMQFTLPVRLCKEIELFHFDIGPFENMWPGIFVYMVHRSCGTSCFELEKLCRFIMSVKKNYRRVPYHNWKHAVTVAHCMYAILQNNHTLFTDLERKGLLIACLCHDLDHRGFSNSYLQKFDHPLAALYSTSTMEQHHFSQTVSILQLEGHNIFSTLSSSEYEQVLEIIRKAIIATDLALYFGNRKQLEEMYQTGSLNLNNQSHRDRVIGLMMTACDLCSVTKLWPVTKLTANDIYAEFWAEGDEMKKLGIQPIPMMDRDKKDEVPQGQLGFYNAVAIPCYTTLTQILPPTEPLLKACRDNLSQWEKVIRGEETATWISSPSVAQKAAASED
# Assay: Measurement of PDE10A inhibitory activity-2 (PDE10A fraction prepared from MOLT-4 cells)
# Type: biochemical
# Details: PDE10A fraction from MOLT-4 cells (peak around 250 mM NaCl)
# Protocol: A human acute lymphoblastic lymphoma T cell line MOLT-4 (which can be purchased under ATCC No. CRL-1582 from ATCC) was cultured in an RPMI1640 medium containing 10% fetal bovine serum to obtain 5×10^8 MOLT-4 cells. The cells were recovered by centrifugation and suspended in 10 ml of buffer solution A (25 mM Tris-HCl, 5 mM 2-mercaptoethanol, 2 mM benzamidine, 2 mM EDTA, and 0.1 mM 4-(2-aminoethyl)benzenesulfonyl hydrochloride, pH 7.5). The cells were homogenized using a Polytron homogenizer and centrifuged (4° C., 25,000 g, 10 minutes). Then, the supernatant was further ultracentrifuged (4° C., 100,000 g, 60 minutes). The obtained supernatant was filtered through a 0.2 μm filter to obtain a soluble fraction.
# HiTrap Q HP column (5 ml×2, GE Healthcare Japan Corp.) equilibrated with buffer solution A was charged with the obtained soluble fraction. Phosphodiesterase was eluted with 300 ml of buffer solution A containing a linear gradient solution of 0 to 0.8 M NaCl to recover sixty 5-ml fractions. Each fraction was tested for cAMP-metabolizing phosphodiesterase activity.
# On the other hand, total RNA was prepared from Jurkat cells, one type of human T cell, and similarly subjected to RT-PCR. […] Eur J Biochem. 1999, 266 (3), 1118-2 has reported that PDE10A from the rat striatum and testis is eluted as an active peak centered around 250 mM NaCl.
# For these reasons, this fraction was used as a solution for the evaluation of PDE10A inhibitory activity. The obtained solution was used to calculate the inhibitory activity (IC50) of a test compound in the same way as in the aforementioned test.
row,pIC50,SMILES
1,8.96,"COCc1ccc(C(C)=O)c2sc(C(=O)Nc3ccc4c(CN5CC[C@H](O)C5)cccc4n3)c(C)c12 [Example 63, (S)-7-Acetyl-N-(5-((3-hydroxypyrrolidin-1-yl)methyl)quinolin-2-yl)-4-(methoxymethyl)-3-methylbenzo[b]thiophene-2-carboxamide dihydrochloride]"
2,9.21,"[2H]C([2H])([2H])OCc1cccc2nc(NC(=O)c3sc4c(C(C)=O)ccc(COC)c4c3C)ccc12 [Example 117, 7-Acetyl-4-(methoxymethyl)-N-(5-((^2H3)methoxymethyl)quinolin-2-yl)-3-methylbenzo[b]thiophene-2-carboxamide]"
3,8.40,"Cc1c(C(=O)Nc2cc(C(C)(C)O)c3ccccc3n2)sc2c(C(=O)C3CCCC3)cccc12 [Example 25, 7-(Cyclopentylcarbonyl)-N-(4-(2-hydroxypropan-2-yl)quinolin-2-yl)-3-methylbenzo[b]thiophene-2-carboxamide]"
4,9.43,"COCc1ccc(C(C)=O)c2sc(C(=O)Nc3ccc4c(COC(=O)CCC(=O)O)cccc4n3)c(C)c12 [Example 89, 4-((2-(7-Acetyl-4-(methoxymethyl)-3-methylbenzo[b]thiophene-2-carboxamido)quinolin-5-yl)methoxy)-4-oxobutanoic acid]"
5,9.32,"COCc1ccc(C(C)=O)c2sc(C(=O)Nc3ccc4c(C(=O)N5CCOCC5)cccc4n3)c(C)c12 [Example 95, 7-Acetyl-4-(methoxymethyl)-3-methyl-N-(5-((morpholin-4-yl)carbonyl)quinolin-2-yl)benzo[b]thiophene-2-carboxamide]"
6,8.54,"COCc1ccc(C(C)=O)c2sc(C(=O)Nc3cc(CN4CCNCC4)c4ccccc4n3)c(C)c12 [Example 124, 7-Acetyl-4-(methoxymethyl)-3-methyl-N-(4-(piperazin-1-ylmethyl)quinolin-2-yl)benzo[b]thiophene-2-carboxamide]"
